In patent US20250127780A1, “IMIDAZO[4,5-B]PYRIDINE AND PYRAZOLO[1,5-A]PYRIMIDINE DERIVATIVES AS SIK MODULATORS FOR THE TREATMENT OF RHEUMATOID ARTHRITIS” (Hoffmann-La Roche Inc., priority 2022, published 2025):

Experiments:
Assay type in all cases: biochemical
[1] = molecular target: SIK3 (Homo sapiens (Human), UniProt Q9Y2K2); experiment: Phosphorylation assay SIK3 (RapidFire mass spectrometry); settings: 1.5 nM SIK3, CHK-peptide, ATP, 30 min pre-incubation, 45 min incubation; read-out: SIK3 RF IC50
Chain of SIK3 (Q9Y2K2 whole entry): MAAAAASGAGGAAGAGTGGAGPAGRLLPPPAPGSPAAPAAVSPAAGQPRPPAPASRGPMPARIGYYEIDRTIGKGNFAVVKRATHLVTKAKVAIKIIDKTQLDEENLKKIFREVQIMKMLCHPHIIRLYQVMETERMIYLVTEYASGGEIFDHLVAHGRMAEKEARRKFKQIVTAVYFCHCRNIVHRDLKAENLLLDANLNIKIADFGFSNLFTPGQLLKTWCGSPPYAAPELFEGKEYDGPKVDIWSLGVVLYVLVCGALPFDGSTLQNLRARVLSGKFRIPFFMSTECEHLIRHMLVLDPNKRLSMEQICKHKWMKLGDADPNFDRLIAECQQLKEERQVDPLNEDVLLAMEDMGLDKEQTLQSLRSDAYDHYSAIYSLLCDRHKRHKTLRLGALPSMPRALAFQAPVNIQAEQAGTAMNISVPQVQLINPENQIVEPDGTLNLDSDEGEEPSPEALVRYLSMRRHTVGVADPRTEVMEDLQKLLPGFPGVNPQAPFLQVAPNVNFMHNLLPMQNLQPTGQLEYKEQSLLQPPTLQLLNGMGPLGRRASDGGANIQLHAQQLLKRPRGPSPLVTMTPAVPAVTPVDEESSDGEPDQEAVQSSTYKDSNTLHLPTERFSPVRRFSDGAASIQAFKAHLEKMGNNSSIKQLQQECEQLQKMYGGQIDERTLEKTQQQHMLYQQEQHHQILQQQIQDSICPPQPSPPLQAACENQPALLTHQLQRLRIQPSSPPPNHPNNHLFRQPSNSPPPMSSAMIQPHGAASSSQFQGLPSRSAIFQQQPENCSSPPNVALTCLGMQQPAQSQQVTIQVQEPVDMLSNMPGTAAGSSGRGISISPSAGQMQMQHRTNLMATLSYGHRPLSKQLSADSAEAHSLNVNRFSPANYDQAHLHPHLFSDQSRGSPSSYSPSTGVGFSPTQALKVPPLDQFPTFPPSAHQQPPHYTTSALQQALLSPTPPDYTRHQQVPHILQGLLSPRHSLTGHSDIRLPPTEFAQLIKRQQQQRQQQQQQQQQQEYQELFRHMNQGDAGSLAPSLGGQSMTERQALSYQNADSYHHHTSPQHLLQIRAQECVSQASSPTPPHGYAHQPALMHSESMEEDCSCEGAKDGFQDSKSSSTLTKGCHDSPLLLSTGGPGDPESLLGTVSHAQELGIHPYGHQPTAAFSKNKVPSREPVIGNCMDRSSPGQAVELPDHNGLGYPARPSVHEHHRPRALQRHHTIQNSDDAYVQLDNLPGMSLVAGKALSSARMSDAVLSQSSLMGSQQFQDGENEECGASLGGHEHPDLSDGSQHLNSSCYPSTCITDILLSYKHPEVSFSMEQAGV
Procedure: (§1) In the presence of SIK2 (resp. SIK1 or SIK3) and ATP the CHK-peptide ([…] with C-terminal arginine amide modification) were phosphorylated at one of the four feasible serine's. Only one phosphorylation is observed under the assay conditions. 60 nl of each compound dilution series (12 point; dilution factor 3, generally 30 μM to 170 pM) in DMSO were transferred by acoustic dispensing to the assay plate and 30 minutes pre-incubated (ambient temperature) after the addition of 5 μl SIK1 (5 nM) resp. 5 μl SIK2 (0.5 nM) or 7 μl SIK3 (1.5 nM) in assay-buffer (12.5 mM HEPES (pH 7.0), 10 mM magnesium acetate, 0.005% BSA). 10 μM CHK-peptide solution and 5 μl of 100 μM ATP for SIK1 & SIK2 resp. 3 μl for SIK3 in assay-buffer were added and incubated ambient for 45 minutes. 40 μl of 0.125% formic acid in water were added to quench the reaction. RapidFire (RF) Mass Spectrometry was utilized for data generation as described below. The multiple charged species (3-5 charges) for the phosphorylated and non-phosphorylated form measured by MRM (Multiple Reaction Monitoring; API5000 or 6500+) or EIC (Extracted Ion Current; QToF) were summed up and the ratio calculated (sum phosphorylated species/sum all species) for data evaluation. Normalization was performed by Genedata software based on the non-inhibition control DMSO and the commercially available SIK inhibitor @1 μM YKL-05-099 (CAS number 1936529-65-5). The results of the assay are expressed in half-maximal inhibitory concentrations (IC50s) and are summarized below in Table 1.
(§2) Samples were aspirated by vacuum for max. 600 ms and loaded to C4-cartridge (Agilent; #G9203A) for 3000 ms@1.5 ml/min with 0.1% formic acid in water. Afterwards samples were transferred to the API5000 (API6500+) or QToF mass spectrometer for 4000 ms@1.25 ml/min with 90% acetonitrile; 10% water; 0.007% TFA; 0.093 formic acid. The cartridge was reconditioned for additional 500 ms with 0.1% formic acid in water.
(§3) All MS analyses using the following MS-setup in MRM mode: Electrospray positive; Ion Spray Voltage: 4000V; Temperature: 550° C.; Collision Gas: 5; Curtain Gas: 15; Gas 1: 40; Gas 2: 42; EP: 10. DP=declustering potential; CE=collision energy; CXP=cell exit potential.
(§4) All MS analyses using the following MS-setup in Mode MS: Dual AJS Electrospray positive; VCap: 3000V; Drying & Sheath gas: 340° C.@81/min; Nebulizer: 60 psig; Nozzle Voltage: 2000V; Fragmentor: 130V; Skimmer: 35V; Oct1 RF Vpp: 700V; Ref masses on@5spectra/s

[2] = molecular target: SIK1 (Homo sapiens (Human), UniProt P57059); experiment: Phosphorylation assay SIK1 (RapidFire mass spectrometry); settings: 5 nM SIK1, CHK-peptide, ATP, 30 min pre-incubation, 45 min incubation; read-out: SIK1 RF IC50
Chain of SIK1 (P57059 whole entry): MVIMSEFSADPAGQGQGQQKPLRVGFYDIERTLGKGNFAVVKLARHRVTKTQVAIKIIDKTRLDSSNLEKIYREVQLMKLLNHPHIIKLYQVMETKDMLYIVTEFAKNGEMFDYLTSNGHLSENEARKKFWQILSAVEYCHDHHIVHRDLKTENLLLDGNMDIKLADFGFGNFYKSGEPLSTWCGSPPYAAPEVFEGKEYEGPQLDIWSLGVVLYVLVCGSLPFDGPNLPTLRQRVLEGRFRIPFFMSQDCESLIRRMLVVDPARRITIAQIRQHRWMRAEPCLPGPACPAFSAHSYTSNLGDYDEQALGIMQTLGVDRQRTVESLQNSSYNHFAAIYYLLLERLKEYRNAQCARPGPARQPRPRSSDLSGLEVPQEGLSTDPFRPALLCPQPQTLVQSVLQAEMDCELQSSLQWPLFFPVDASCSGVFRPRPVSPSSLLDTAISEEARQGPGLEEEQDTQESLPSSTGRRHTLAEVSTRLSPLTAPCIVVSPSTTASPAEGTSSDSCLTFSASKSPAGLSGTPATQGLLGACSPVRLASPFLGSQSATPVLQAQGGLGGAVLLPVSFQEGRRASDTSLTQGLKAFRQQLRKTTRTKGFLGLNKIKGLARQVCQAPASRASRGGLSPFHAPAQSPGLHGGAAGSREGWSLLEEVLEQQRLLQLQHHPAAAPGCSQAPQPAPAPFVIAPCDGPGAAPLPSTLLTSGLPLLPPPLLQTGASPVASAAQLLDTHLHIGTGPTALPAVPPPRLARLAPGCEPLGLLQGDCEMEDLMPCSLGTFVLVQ
Procedure: as §1, §2, §3, §4

[3] = molecular target: SIK2 (Homo sapiens (Human), UniProt Q9H0K1); experiment: Phosphorylation assay SIK2 (RapidFire mass spectrometry); settings: 0.5 nM SIK2, CHK-peptide, ATP, 30 min pre-incubation, 45 min incubation; read-out: SIK2 RF IC50
Chain of SIK2 (Q9H0K1 whole entry): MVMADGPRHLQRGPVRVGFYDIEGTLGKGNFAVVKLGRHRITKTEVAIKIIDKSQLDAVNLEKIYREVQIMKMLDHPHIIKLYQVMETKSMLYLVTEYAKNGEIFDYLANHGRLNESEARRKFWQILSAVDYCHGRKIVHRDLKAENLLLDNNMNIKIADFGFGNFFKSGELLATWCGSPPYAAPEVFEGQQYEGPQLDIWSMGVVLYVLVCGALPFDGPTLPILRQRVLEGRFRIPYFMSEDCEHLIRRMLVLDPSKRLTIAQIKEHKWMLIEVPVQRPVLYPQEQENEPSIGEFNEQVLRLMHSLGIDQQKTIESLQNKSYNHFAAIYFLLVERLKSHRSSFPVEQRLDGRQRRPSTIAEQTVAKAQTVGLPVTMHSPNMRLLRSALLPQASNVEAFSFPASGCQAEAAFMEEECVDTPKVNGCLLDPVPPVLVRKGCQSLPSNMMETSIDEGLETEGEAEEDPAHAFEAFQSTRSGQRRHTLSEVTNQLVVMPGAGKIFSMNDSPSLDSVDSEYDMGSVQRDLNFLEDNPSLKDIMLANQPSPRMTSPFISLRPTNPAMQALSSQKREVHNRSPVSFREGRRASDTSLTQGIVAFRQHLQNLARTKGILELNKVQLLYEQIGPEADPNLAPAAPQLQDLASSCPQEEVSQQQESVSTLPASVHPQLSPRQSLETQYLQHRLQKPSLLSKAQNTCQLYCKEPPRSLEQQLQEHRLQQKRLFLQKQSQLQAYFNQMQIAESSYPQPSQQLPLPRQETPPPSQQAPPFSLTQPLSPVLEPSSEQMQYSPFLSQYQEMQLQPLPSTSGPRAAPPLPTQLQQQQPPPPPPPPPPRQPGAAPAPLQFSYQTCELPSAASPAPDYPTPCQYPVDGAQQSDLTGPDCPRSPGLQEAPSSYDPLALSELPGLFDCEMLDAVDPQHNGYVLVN
Procedure: as §1, §2, §3, §4

Row | SMILES | IC50 [1] [nM] | IC50 [2] [nM] | IC50 [3] [nM]
1 | Cc1ccc(Nc2cnc3c(c2)ncn3-c2ccc(C(C)O)c(-n3nc(C#N)cc3C)c2)nn1 (stereo not drawn) [Example 1, 1-[2-(1-Hydroxyethyl)-5-[6-[(6-methylpyridazin-3-yl)amino]imidazo[4,5-b]pyridin-3-yl]phenyl]-5-methyl-pyrazole-3-carbonitrile] | 2 | 2800 | 16
2 | Cc1ccc(Nc2cnc3c(-c4ccc(C(C)O)c(-n5nc(C#N)cc5C)c4)cnn3c2)nn1 (stereo not drawn) [Example 2, 1-[2-(1-Hydroxyethyl)-5-[6-[(6-methylpyridazin-3-yl)amino]pyrazolo[1,5-a]pyrimidin-3-yl]phenyl]-5-methyl-pyrazole-3-carbonitrile] | 0.3 | 616 | 1
3 | Cc1cc(C(F)F)nn1-c1cc(-n2cnc3cc(Nc4cccnn4)cnc32)ccc1C(C)O (stereo not drawn) [Example 3, 1-[2-[3-(Difluoromethyl)-5-methyl-pyrazol-1-yl]-4-[6-(pyridazin-3-ylamino)imidazo[4,5-b]pyridin-3-yl]phenyl]ethanol] | 27 | 16600 | 207
4 | COc1nc2c(cc1Nc1nnc(C)cc1C(=O)N(C)C)ncn2-c1ccc(C#N)c(-n2nc(OC(F)F)cc2C)c1 [Example 4, 3-[[3-[4-cyano-3-[3-(difluoromethoxy)-5-methyl-pyrazol-1-yl]phenyl]-5-methoxy-imidazo[4,5-b]pyridin-6-yl]amino]-N,N,6-trimethyl-pyridazine-4-carboxamide] | 207 | 18600 | 7
5 | Cc1ccc(Oc2cnc3c(-c4ccc(C(C)O)c(-n5nc(C#N)cc5C)c4)cnn3c2)nn1 (stereo not drawn) [Example 5, 1-[2-(1-Hydroxyethyl)-5-[6-(6-methylpyridazin-3-yl)oxypyrazolo[1,5-a]pyrimidin-3-yl]phenyl]-5-methylpyrazole-3-carbonitrile] | 12 | 14600 | 106
6 | Cc1cc(C(=O)N(C)C)c(Nc2cnc3c(c2)ncn3-c2ccc(C#N)c(-n3nc(OC(F)F)cc3C)c2)nn1 [Example 6, 3-[[3-[4-Cyano-3-[3-(difluoromethoxy)-5-methyl-pyrazol-1-yl]phenyl]imidazo[4,5-b]pyridin-6-yl]amino]-N,N,6-trimethyl-pyridazine-4-carboxamide] | 366 | ≥ 30000 | 152
7 | Cc1ccc(Nc2cnc3c(c2)ncn3-c2cc(F)c(C(C)O)c(-n3nc(C#N)cc3C)c2)nn1 (stereo not drawn) [Example 7, 1-[3-Fluoro-2-(1-hydroxyethyl)-5-[6-[(6-methylpyridazin-3-yl)amino]imidazo[4,5-b]pyridin-3-yl]phenyl]-5-methyl-pyrazole-3-carbonitrile] | 6 | 6010 | 21
8 | Cc1ccc(Nc2cnc3c(-c4ccc(C(C)O)c(-n5nc(C(F)F)cc5C)c4)cnn3c2)nn1 (stereo not drawn) [Example 8, 1-[2-[3-(Difluoromethyl)-5-methyl-pyrazol-1-yl]-4-[6-[(6-methylpyridazin-3-yl)amino]pyrazolo[1,5-a]pyrimidin-3-yl]phenyl]ethanol] | 4 | ≥ 30000 | 52
